Test results reported in patent US6692927B2, “Bax degradation involvement in tumor survival and progression” (University of South Florida, priority 2000, dated 2004).
Where a SMILES comes first, the peptide text is derived from it. [ ]: non-standard residue; d: D form. The star is where a group is joined. Nle = CCCC[C@H](N)C(=O)O; Cbz = O=C(OCc1ccccc1)*

Legend:
[1] = tested on: Bax degradation activity; experiment: cell-free Bax degradation assay, inhibitor added to MCF-7 cell extract; type: biochemical, human; details: 10-minute preincubation of MCF-7 cell extract with inhibitor (100 mM per FIG. 9C legend), 37° C., 4 h
Experimental: (§1) FIGS. 9A-9F show Bax degradation depends on ubiquitination, proteasome and ATP. (FIG. 9A) Jurkat cells (0 h) were treated with either 50 μM LLnV or 10 μM lactacystin, followed by preparation of Bax immunoprecipitates (with clone 6A7), which were immunoblotted with an ubiquitin antibody. Positions of putative ubiquitinated Bax proteins (p47, p55) are indicated at left. The nature of the ˜30 kDa and ˜84 kDa remains unclear. (FIG. 9B) The [^35S]-labeled Bax (upper) or Bcl-2 (lower) protein (1 μl) were incubated at 37° C. for 2 h with either buffer Z only (lane 1) or […] protein extract of MCF-7 cells grown exponentially (lane 2) or pretreated for 8 h with […] LLnV (lane 3). (FIG. 9C) The [^35S]-labeled Bax protein (1 μl) was incubated with either buffer Z only (lane 1) or 100 μg MCF-7 cell lysate at 37° C. for 4 h, in the presence of an indicated inhibitor (100 mM; lanes 3-8) or an equal volume of DMSO (lane 2) in buffer Z. A weak band of ˜16 kDa (indicated by an arrow) is probably an intermediate product of proteasome-mediated Bax degradation. (FIG. 9D) The proteasome in MCF-7 whole cell lysate (W lys, lane 1) was precipitated by using either ultraspin (ULS) or a proteasome subunit a6 antibody (IP). Both supernatant (lanes 2, 4) and pellet (lanes 3, 5) fractions were examined by Western blot assay using antibody to the proteasome a6 subunit (MW 33 kDa). (FIG. 9E) Bax degradation assay was performed as in FIG. 9B, with addition of buffer Z (lane 1) or 100 μg protein from MCF-7 whole cell lysate (lane 2), ultraspun supernatant (lane 3) or plus the pellet (lane 4), immunodepleted supernatant (lane 5) or plus a purified 20S proteasome ([…]; lane 6), or the purified proteasome alone (2 μg; lane 7). (FIG. 9F) Bax degradation assay was performed as in FIG. 9B, in the absence (lane 3) or presence of 10 mM ATP (lane 2) or 10 mM ATP-y-S (lane 4).
In vitro Bax Degradation Assay: Human Bax-a cDNA subcloned into pcDNA3 was a gift from Dr. Hong-gang Wang. Human full length of bcl-2-a cDNA was cloned from Jurkat T cells and subcloned into pcDNA3.1(−) as described+. Both bax and bcl-2 plasmids were used for coupled in vitro transcription/translation (Promega; Madison, Wis.) in the presence of [^35S]methionine (Amersham Pharmacia Biotech; Piscataway, N.J.). Protein extracts were prepared from either MCF-7 cells or prostate tumor tissues in buffer Y (50 mM Tris-HCl, pH 7.4, 250 mM NaCl, 1% Triton X-100, 0.1% SDS, 1 mM EDTA), and used for Bax (or Bcl-2) degradation assay. Briefly, 1 microl of [^35S]-labeled Bax (or Bcl-2) protein was incubated at 37° C. for 2-4 hours with 100-200 microg protein extract in buffer Z (50 mM Tris-HCl, pH 7.4, 5 mM MgCl2, 3 mM DTT, 10 mM ATP, 10 mM phosphocreatine, 10 microg/ml creatine phosphokinase, 10 microg/ml aprotinin, 10 microg/ml leupeptin, 10% glycerol and 2 microg/ml ubiquitin). After incubation, the samples were subjected to gel electrophoresis and autoradiography. Under the cell-free assay conditions, the calpain-mediated Bax cleavage activity was blocked by omission of calcium and addition of the protease inhibitor leupeptin (Wood et al, 1998). To deplete the proteasome, MCF-7 cell lysates were either immunoprecipitated with the 20S proteasome subunit a6 antibody or ultracentrifugated at 100,000×g for 6 hours. The proteasome-enriched pellet fraction was resuspended in buffer Y.
To further study the proteasome activity that degrades Bax protein, a cell-free Bax degradation assay was developed by using an in vitro-translated, [^35S]-labeled Bax protein as substrate (FIG. 9B, upper, lane 1). The Bax degradation activity is present in protein extracts prepared from exponentially growing MCF-7 (FIG. 9), K562, VA-13, WI-38, Jurkat T or HL-60 cells. The labeled Bax was almost completely degraded by a MCF-7 cell extract after 2 to 4 hours incubation at 37° C. (FIG. 9B, upper, and FIG. 9C, lanes 2 vs. 1). […]

[2] = tested on: normal WI-38 cells; experiment: PARP cleavage, cytochrome c release, Bax and p21 in normal fibroblasts; type: cell-based, human; details: LLnL at up to 200 microM, 14 hours
Source text: Proteasome inhibitors activate Bax- and cytochrome c-dependent apoptosis pathway preferentially in transformed human fibroblasts. Normal human fibroblasts are more resistant to proteasome inhibitor-induced apoptosis than transformed and cancer cells (An et al., in press). This is probably due to inability of the normal cells to accumulate Bax protein in response to proteasome inhibition, and consequently failure to release cytochrome c. To test this hypothesis, both SV40-transformed and normal WI-38 cells were treated with 50 microM LLnV for up to 24 hours, followed by measurement of PARP cleavage, cytochrome c release and Bax accumulation. […] In contrast, only after 24 hours treatment, low levels of p85/PARP fragment and cytosolic cytochrome c were detected in normal WI-38 cells (FIGS. 1, A, B, lanes 8-14). […] The levels of Bax/p21 were increased at as early as 4 hours and remained high afterwards. […] The level of another band of ˜47 kDa increased at 4 hours, further increased between 6 and 12 hours, and then decreased (FIG. 1C). The p70 and p47 bands can contain ubiquitinated forms of Bax since similar polypeptides were detected by antibodies to both Bax and ubiquitin (Li et al., 1999). […] Therefore, although unable to activate the Bax- and cytochrome c-dependent apoptotic pathway in response to a low concentration of a proteasome inhibitor, normal cells are capable of undergoing Bax- and cytochrome c-independent apoptosis in response to a proteasome inhibitor at higher concentrations.
SV40-transformed (VA-13) and normal WI-38 cells were treated with 50 microM LLnV or DMSO (letter D) for up to 24 hours, followed by measurement of PARP cleavage (A), cytochrome c release (B) and Bax accumulation (C; also see FIG. 2). Panel D, exponentially grown VA-13 cells were pretreated with 50 microM LLnV or DMSO for 1 hour, washed with methionine-free medium, and then incubated for 30 minutes in methionine-free medium plus 50 microM LLnV (or DMSO). This was followed by replacing fresh methionine-free medium containing 150 microCi/ml of [^35S]-methionine, 10% dialyzed FBS and 50 microM LLnV (or DMSO). Cells were further incubated for 6 hours, followed by preparation of [^35S]-labeled protein lysates and Bax immunoprecipitates (6A7, PharMingen). The labeled Bax bands are indicated. […] Bax-alpha subcloned into pcDNA3 was used for coupled in vitro transcription/translation in the presence of [^35S]methionine. For Bax cleavage assay, the whole cell extracts were prepared. The [^35S]-labeled Bax (0.7 microl) was incubated with 50 microg protein in assay buffer (containing 50 microM LLM and no Ca^2+) for 4 hours at 37° C. Following incubation, the samples were subjected to SDS gel electrophoresis and autoradiography.

[3] = tested on: Jurkat T cells; experiment: Western blot and Bax IP/ubiquitin blot in Jurkat T cells; type: cell-based, human; details: 50 microM
Experimental: FIGS. 8A-8D show proteasome inhibition accumulates Bax to mitochondria/cytoplasm and increases interaction between Bax and Bcl-2 proteins. Jurkat cells (0 h; FIG. 8A and FIG. 8B) or Jurkat cells overexpressing Bcl-2 (0 h; FIG. 8C and FIG. 8D) were treated by either 10 μM lactacystin (FIGS. 8A-8C), 50 μM LLnV (FIG. 8D), or 50 μM LLM (FIG. 8A and FIG. 8B) for the indicated hours. (FIG. 8A and FIG. 8B) Western blotting with antibodies to PARP and Bax were performed as described in FIG. 7. (FIG. 8C) Immunohistochemistry (see MATERIALS AND METHODS). Localization of Bax protein (green) and nuclei (red) are shown. (FIG. 8D) Bax immunoprecipitates, prepared by an agarose-conjugated N-20 Bax antibody, were immunoblotted first with the 6A7 Bax antibody (upper) and then reblotted with a Bcl-2 antibody (lower).
as §1, with “4). […]” for “4).”

[4] = tested on: simian virus 40-transformed and parental normal human fibroblasts; details: but not the parental normal; cited from earlier work
[5] = tested on: human Jurkat T cells overexpressing Bcl-2 and human prostate, breast, tongue and brain tumor cell lines; details: cited from earlier work; for apoptosis induction / cell kill: low concentrations, same conditions for etoposide

| Compound | Bax degradation process/activity [1] | other results |
| --- | --- | --- |
| tosyl-L-lysine chloromethyl ketone | not inhibited | – |
| aprotinin | not inhibited | – |
| CCCC[C@@H](C=O)NC(=O)[C@H](CC(C)C)NC(=O)[C@H](CC(C)C)NC(C)=O [LLnL] (Ac-Leu-Leu-[Nle]-aldehyde) | blocked | apoptosis as judged by PARP cleavage [2]: underwent apoptosis; cytochrome c release and Bax accumulation [2]: neither release cytochrome c nor accumulate Bax; levels of the cdk inhibitor p21 [2]: significantly increased |
| N=C(N)c1ccccc1 [benzamidine] | not inhibited | – |
| CSCCC(C=O)NC(=O)C(CC(C)C)NC(=O)C(CC(C)C)NC(C)=O (stereo not drawn) [LLM] (Ac-Leu-Leu-Met-aldehyde; configuration not given here) | not | Bax accumulation and PARP cleavage [3]: had no such effects |
| CC(C)[C@H](O)[C@@]12NC(=O)[C@H](C)[C@@H]1OC2=O [b-lactone, clasto-lactacyctin b-lactone] | blocked | – |
| CC(=O)N[C@@H](Cc1ccc(O)cc1)C(=O)N[C@H](C(=O)N[C@@H](C)C(=O)N[C@@H](CC(=O)O)C(=O)CCl)C(C)C [acetyl-YVAD-chloromethyl ketone] | not inhibited | – |
| CC(C)C[C@@H](C=O)NC(=O)[C@H](CC(C)C)NC(=O)[C@H](CC(C)C)NC(=O)OCc1ccccc1 [LLL] (Cbz-Leu-Leu-Leu-aldehyde) | blocked | – |
| CC(=O)N[C@@H](CC(=O)O)C(=O)N[C@@H](CCC(=O)O)C(=O)N[C@H](C(=O)N[C@@H](CC(=O)O)C(=O)CF)C(C)C [acetyl-DEVD-fluoromethyl ketone] | not inhibited | – |
| CC(=O)N[C@@H](CC(C)C)C(=O)N[C@@H](CC(C)C)C(=O)N[C@H](C=O)CCCNC(=N)N [leupeptin] | not inhibited | – |
| CC(C)C[C@@H](C=O)NC(=O)[C@H](CCCN=C(N)N[N+](=O)[O-])NC(=O)C(CCCCCCCCN1C(=O)c2ccccc2C1=O)C1CCCC1 (some centres unmarked) [CEP1612] | – | p27 accumulation and apoptosis [4]: selectively accumulates p27 and induces apoptosis; cyclin-dependent kinase inhibitors p21 and p27 ([5]; associated with CEP1612-induced apoptosis): accumulation of the cyclin-dependent kinase inhibitors p21 and p27; apoptosis induction / cell kill [5]: rapidly induces apoptosis |
| CCN1C(=O)C=CC1=O [N-ethylmaleimide] | not inhibited | – |
| COc1cc([C@@H]2c3cc4c(cc3[C@@H](O[C@@H]3O[C@@H]5CO[C@@H](C)O[C@H]5[C@H](O)[C@H]3O)[C@H]3COC(=O)[C@H]23)OCO4)cc(OC)c1O [etoposide] | – | apoptosis induction / cell kill [5]: fails to kill these cells |
| O=S(=O)(F)Cc1ccccc1 [phenylmethylsulfonyl fluoride] | not inhibited | – |
